Patent US7419969B2 (Bristol-Myers Squibb Company, priority 2004, dated 2008)

Target: T1, HIV-integrase (Human immunodeficiency virus type 1 group M subtype B, UniProt P04585)
T1 construct: Recombinant integrase (0.26 ng) was incubated with the beads
Assay: in-vitro activity against HIV-integrase (HIV Integrase Inhibition, SPA bead assay)
Format: biochemical
Conditions: Table 1; recombinant integrase, activity class
Description: To evaluate in-vitro activity against HIV-integrase, 5 pmole of biotin labeled substrate DNA was bound to 100 μg of Streptavidin coated PVT SPA beads (Amersham Pharmacia Biotech). Recombinant integrase (0.26 ng) was incubated with the beads for 90 min at 37° C. Unbound enzyme was removed by washing the complex followed by addition of inhibitors and […] of P33 labeled target DNA. The reaction was stopped by adding EDTA to a final concentration of 10 mM. Samples were counted in TopCountNXT (Packard) and the CPM was used as a measure of integration. The reaction condition was as described in Engelman, A. and Craigie, R. J. Vitrol. 1996, 69, 5908. The sequences of substrate and target DNA were described in Nucleic Acid Research 1994, 22, 1121.

Row | SMILES | IC50
1 | O=C(NCc1ccc(F)cc1N1CCCCS1(=O)=O)c1nc2n(c(=O)c1O)CCOC21CCCC1 [Example 34, N-[[4-fluoro-2-(tetrahydro-1,1-dioxido-2H-1,2-thiazin-2-yl)phenyl]methyl]-6′,7′-dihydro-3′-hydroxy-4′-oxo-spiro[cyclopentane-1,9′(4′H)-pyrimido[2,1-c][1,4]oxazine]-2′-carboxamide] | 1 to 10 nM
2 | CS(=O)(=O)c1cc(F)ccc1CNC(=O)c1nc2n(c(=O)c1O)CCOC21CCOC1 (stereo not shown) [Example 90, N-[[4-fluoro-2-(methylsulfonyl)phenyl]methyl]-4,5,6′,7′-tetrahydro-3′-hydroxy-4′-oxo-spiro[furan-3(2H),9′(4′H)-pyrimido[2,1-c][1,4]oxazine]-2′-carboxamide] | 10 to 100 nM
3 | O=C(NCc1ccc(F)cc1-n1cncn1)c1nc2n(c(=O)c1O)CCCOC21CCC1 [Example 60, N-[[4-fluoro-2-(1 H-1,2,4-triazol-1-yl)phenyl]methyl]-7′,8′-dihydro-3′-hydroxy-4′-oxo-spiro[cyclobutane-1,10′(4′H)-[6H]pyrimido[2,1-c][1,4]oxazepine]-2′-carboxamide] | 1 to 10 nM
4 | Cc1ccc(CNC(=O)c2nc3n(c(=O)c2O)CCOC32CCCC2)cc1F [Example 27, N-[(3-fluoro-4-methylphenyl)methyl]-6′,7′-dihydro-3′-hydroxy-4′-oxo-spiro[cyclopentane-1,9′(4′H)-pyrimido[2,1-c][1,4]oxazine]-2′-carboxamide] | 1 to 10 nM
5 | O=C(NCc1ccccc1N1CCCCS1(=O)=O)c1nc2n(c(=O)c1O)CCCC21CCC1 [Example 83, 7′,8′-dihydro-3′-hydroxy-4′-oxo-N-[[2-(tetrahydro-1,1-dioxido-2H-1,2-thiazin-2-yl)phenyl]methyl]-spiro[cyclobutane-1,9′(6′H)-[4H]pyrido[1,2-α]pyrimidine]-2′-carboxamide] | 10 to 100 nM
6 | CN(C)S(=O)(=O)c1cc(F)ccc1CNC(=O)c1nc2n(c(=O)c1O)CCOC21CCC1 [Example 54, N-[[2-[(dimethylamino)sulfonyl]-4-fluorophenyl]methyl]-6′,7′-dihydro-3′-hydroxy-4′-oxo-spiro[cyclobutane-1,9′(4′H)-pyrimido[2,1-c][1,4]oxazine]-2′-carboxamide] | 1 to 10 nM
7 | O=C(NCc1ccc(Cl)cc1)c1nc2n(c(=O)c1O)CCCC21CCC1 [Example 65, N-[(4-chlorophenyl)methyl]-7′,8′-dihydro-3′-hydroxy-4′-oxo-spiro[cyclobutane-1,9′(6′H)-[4H]pyrido[1,2-α]pyrimidine]-2′-carboxamide] | 1 to 10 nM
8 | O=C(NCc1ccc(F)cc1-n1nccn1)c1nc2n(c(=O)c1O)CCCC21CCCC1 [Example 6, N-[[4-fluoro-2-(2H-1,2,3-triazol-2-yl)phenyl]methyl]-7′,8′-dihydro-3′-hydroxy-4′-oxo-spiro[cyclopentane-1,9′(6′H)-[4H]pyrido[1,2-α]pyrimidine]-2′-carboxamide] | 1 to 10 nM
9 | CN(C)S(=O)(=O)c1cc(F)ccc1CNC(=O)c1nc2n(c(=O)c1O)CCOC21CCOCC1 [Example 47, N-[[2-[(dimethylamino)sulfonyl]-4-fluorophenyl]methyl]-2,3,5,6,6′,7′-hexahydro-3′-hydroxy-4′-oxo-spiro[4H-pyran-4,9′(4′H)-pyrimido[2,1-c][1,4]oxazine]-2′-carboxamide] | 10 to 100 nM
10 | CS(=O)(=O)c1cc(F)ccc1CNC(=O)c1nc2n(c(=O)c1O)CCOC21CCCC1 [Example 89, N-[[4-fluoro-2-(methylsulfonyl)phenyl]methyl]-6′,7′-dihydro-3′-hydroxy-4′-oxo-spiro[cyclopentane-1,9′(4′H)-pyrimido[2,1-c][1,4]oxazine]-2′-carboxamide] | 1 to 10 nM
11 | CS(=O)(=O)c1cc(F)ccc1CNC(=O)c1nc2n(c(=O)c1O)CCCC21CCC1 [Example 81, N-[[4-fluoro-2-(methylsulfonyl)phenyl]methyl]-7′,8′-dihydro-3′-hydroxy-4′-oxo-spiro[cyclobutane-1,9′(6′H)-[4H]pyrido[1,2-α]pyrimidine]-2′-carboxamide] | 1 to 10 nM
12 | O=C(NCc1cccc(F)c1)c1nc2n(c(=O)c1O)CCCC21CCC1 [Example 67] | 1 to 10 nM
13 | O=C(NCc1ccc(F)cc1N1CCCCS1(=O)=O)c1nc2n(c(=O)c1O)CCCC21CCC1 [Example 79, N-[[4-fluoro-2-(tetrahydro-1,1-dioxido-2H-1,2-thiazin-2-yl)phenyl]methyl]-7′,8′-dihydro-3′-hydroxy-4′-oxo-spiro[cyclobutane-1,9′(6′H)-[4H]pyrido[1,2-α]pyrimidine]-2′-carboxamide] | 1 to 10 nM
14 | O=C(NCc1ccccc1)c1nc2n(c(=O)c1O)CCCC21CCC1 [Example 62, N-(phenylmethyl)-7′,8′-dihydro-3′-hydroxy-4′-oxo-spiro[cyclobutane-1,9′(6′H)-[4H]pyrido[1,2-α]pyrimidine]-2′-carboxamide] | 1 to 10 nM
15 | CS(=O)(=O)c1cc(F)ccc1CNC(=O)c1nc2n(c(=O)c1O)CCOC21CCC1 [Example 53, N-[[4-fluoro-2-(methylsulfonyl)phenyl]methyl]-6′,7′-dihydro-3′-hydroxy-4′-oxo-spiro[cyclobutane-1,9′(4′H)-pyrimido[2,1-c][1,4]oxazine]-2′-carboxamide] | 1 to 10 nM
16 | O=C(NCc1ccc(Cl)c(Cl)c1)c1nc2n(c(=O)c1O)CCOC21CCCC1 [Example 21, N-[(3,4-dichlorophenyl)methyl]-6′,7′-dihydro-3′-hydroxy-4′-oxo-spiro[cyclopentane-1,9′(4′H)-pyrimido[2,1-c][1,4]oxazine]-2′-carboxamide] | 1 to 10 nM
17 | O=C(NCCc1ccc(F)cc1)c1nc2n(c(=O)c1O)CCOC21CCCC1 [Example 30, N-[2-(4-fluorophenyl)ethyl]-6′,7′-dihydro-3′-hydroxy-4′-oxo-spiro[cyclopentane-1,9′(4H)-pyrimido[2,1-c][1,4]oxazine]-2′-carboxamide] | 10 to 100 nM

Same assay, conditions: Table 1a; recombinant integrase, activity class

Row | SMILES | IC50
18 | Cc1nnn(-c2cc(F)ccc2CNC(=O)c2nc3n(c(=O)c2O)CCOC32CCC2)c1C [Example 102, Spiro[cyclobutane-1,9′(4′H)-pyrimido[2,1-c][1,4]oxazine]-2′-carboxamide, N-[[2-(4,5-dimethyl-1H-1,2,3-triazol-1-yl)-4-fluorophenyl]methyl]-6′,7′-dihydro-3′-hydroxy-4′-oxo-] | 10 to 100 nM
19 | O=C(NCc1ccc(F)cc1-n1ccnn1)c1nc2n(c(=O)c1O)CCOC21CCC1 [Example 101, Spiro[cyclobutane-1,9′(4′H)-pyrimido[2,1-c][1,4]oxazine]-2′-carboxamide, N-[[4-fluoro-2-(1H-1,2,3-triazol-1-yl)phenyl]methyl]-6′,7′-dihydro-3′-hydroxy-4′-oxo-] | 1 to 10 nM
20 | CS(=O)(=O)c1cc(F)ccc1CNC(=O)c1nc2n(c(=O)c1O)CCOC21COC1 [Example 111, Spiro[oxetane-3,9′(4′H)-pyrimido[2,1-c][1,4]oxazine]-2′-carboxamide, N-[[4-fluoro-2-(methylsulfonyl)phenyl]methyl]-6′,7′-dihydro-3′-hydroxy-4′-oxo-] | 10 to 100 nM
21 | CN1CCn2c(nc(C(=O)NCc3ccc(F)cc3-n3cncn3)c(O)c2=O)C12CCCC2 [Example 93, Spiro[cyclopentane-1,9′(6′H)-[4H]pyrazino[1,2-a]pyrimidine]-2′-carboxamide, N-[[4-fluoro-2-(1H-1,2,4-triazol-1-yl)phenyl]methyl]-7′,8′-dihydro-3′-hydroxy-8′-methyl-4′-oxo-] | 1 to 10 nM
22 | CN1CCn2c(nc(C(=O)NCc3ccc(F)cc3-n3cncn3)c(O)c2=O)C12CCC2 [Example 99, Spiro[cyclobutane-1,9′(6′H)-[4H]pyrazino[1,2-a]pyrimidine]-2′-carboxamide, N-[[4-fluoro-2-(1H-1,2,4-triazol-1-yl)phenyl]methyl]-7′,8′-dihydro-3′-hydroxy-8′-methyl-4′-oxo-] | 1 to 10 nM
23 | CN1CCn2c(nc(C(=O)NCc3ccc(F)cc3-n3cncn3)c(O)c2=O)C12CCCCC2 [Example 96, Spiro[cyclohexane-1,9′(6′H)-[4H]pyrazino[1,2-a]pyrimidine]-2′-carboxamide, N-[[4-fluoro-2-(1H-1,2,4-triazol-1-yl)phenyl]methyl]-7′,8′-dihydro-3′-hydroxy-8′-methyl-4′-oxo-] | 1 to 10 nM
24 | O=C(NCc1ccc(F)cc1-n1cncn1)c1nc2n(c(=O)c1O)CCNC21CCC1 [Example 131] | 1 to 10 nM
25 | O=C(NCc1ccccc1N1CCC1=O)c1nc2n(c(=O)c1O)CCOC21CCC1 [Example 125, Spiro[cyclobutane-1,9′(4′H)-pyrimido[2,1-c][1,4]oxazine]-2′-carboxamide, 6′,7′-dihydro-3′-hydroxy-4′-oxo-N-[[2-(2-oxo-1-azetidinyl)phenyl]methyl]-] | 1 to 10 nM
26 | Cc1ncn(-c2cc(F)ccc2CNC(=O)c2nc3n(c(=O)c2O)CCOC32COC2)n1 [Example 108, Spiro[oxetane-3,9′(4′H)-pyrimido[2,1-c][1,4]oxazine]-2′-carboxamide, N-[[4-fluoro-2-(3-methyl-1H-1,2,4-triazol-1-yl)phenyl]methyl]-6′,7′-dihydro-3′-hydroxy-4′-oxo-] | 1 to 10 nM
27 | O=C(NCc1ccc(F)cc1-n1ccnn1)c1nc2n(c(=O)c1O)CCOC21CCCC1 [Example 113, Spiro[cyclopentane-1,9′(4′H)-pyrimido[2,1-c][1,4]oxazine]-2′-carboxamide, N-[[4-fluoro-2-(1H-1,2,3-triazol-1-yl)phenyl]methyl]-6′,7′-dihydro-3′-hydroxy-4′-oxo-] | 1 to 10 nM
28 | O=C(NCc1ccc(F)cc1)c1nc2n(c(=O)c1O)CCCOC21CCOCC1 [Example 114, Spiro[4H-pyran-4,10′(4′H)-[6H]pyrimido[2,1-c][1,4]oxazepine]-2′-carboxamide, N-[(4-fluorophenyl)methyl]-2,3,5,6,7′,8′-hexahydro-3′-hydroxy-4′-oxo-] | 1 to 10 nM
